The text below walks through data of patent US20230210864A1, “AGENT FOR PROMOTING CORNEAL ENDOTHELIAL CELL ADHESION” (Senju Pharmaceutical Co., Ltd., priority 2007, published 2023).

This experiment deals with monkey corneal endothelial cells. Kind of experiment: Adhesion of cultured monkey corneal endothelial cells with fasudil, CellTiter-Glo Luminescent Cell Viability Assay. Format: cell-based, Macaca fascicularis. The note with it: fasudil 10 μM, passage-cultured cells. How it is done:
From the corneal tissue isolated from Macaca fascicularis euthanized, Descemet's membrane with corneal endothelial cells attached thereto was separated. The Descemet's membrane was incubated together with Dispase II (1.2 U/ml, Roche Applied Science) under the conditions of 37° C., 5% CO2 for 45 min, and the corneal endothelial cells were mechanically separated by a pipetting operation. The separated corneal endothelial cells were centrifuged and passage-cultured in a medium for corneal endothelium. As the medium for corneal endothelium, the same cell culture medium as in Example 1 was used. The cultured monkey corneal endothelial cells collected during the passage culture by a 0.05% trypsin treatment were separated and centrifuged, and stirred to the same concentration in a medium for corneal endothelium added with fasudil (10 μM, SIGMA-ALDRICH) in the fasudil group and in a medium for corneal endothelium without addition of fasudil in the control group, and the cells were seeded on a 96 well plate at a density of about 2000 cells per well. At 24 hr from the start of the culture, the adhered cells were counted using CellTiter-Glo (registered trade mark) Luminescent Cell Viability Assay (Promega) (FIG. 17).
On the technique in general: ATP-based viability assays read luminescence as a measure of living cells.

For `O=S(=O)(c1cccc2cnccc12)N1CCCNCC1` [fasudil, 1-(5-isoquinolinesulfonyl)homopiperazine], the “cell adhesion of corneal endothelial cells at 24 hr, compared to control group” value is “effect of promoted cell adhesion of the corneal endothelial cells was also found”.
